IC50 data for twelve molecules are collected here from patent US20220340629A1, “Myosin Derived Peptides and Related Compounds with Anticoagulant Activities” (THE SCRIPPS RESEARCH INSTITUTE, priority 0001, published 2022).

Residues, ends and D or L forms follow the SMILES beside them.

Sequence of skeletal muscle myosin-supported prothrombin activation by factors Xa and Va (P00742 41-179): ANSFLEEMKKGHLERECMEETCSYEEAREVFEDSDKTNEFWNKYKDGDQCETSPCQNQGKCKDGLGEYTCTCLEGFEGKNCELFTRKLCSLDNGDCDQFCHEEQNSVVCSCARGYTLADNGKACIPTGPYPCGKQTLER
Sequence of skeletal muscle myosin-supported prothrombin activation by factors Xa and Va (P00742 235-488): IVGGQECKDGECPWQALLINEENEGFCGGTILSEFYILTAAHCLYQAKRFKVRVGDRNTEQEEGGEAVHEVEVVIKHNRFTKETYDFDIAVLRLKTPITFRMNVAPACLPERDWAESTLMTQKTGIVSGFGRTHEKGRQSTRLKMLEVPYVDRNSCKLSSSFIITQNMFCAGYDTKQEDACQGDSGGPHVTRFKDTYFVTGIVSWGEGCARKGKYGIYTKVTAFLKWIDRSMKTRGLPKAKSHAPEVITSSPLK
Sequence of skeletal muscle myosin-supported prothrombin activation by factors Xa and Va (P12259 29-737 partner): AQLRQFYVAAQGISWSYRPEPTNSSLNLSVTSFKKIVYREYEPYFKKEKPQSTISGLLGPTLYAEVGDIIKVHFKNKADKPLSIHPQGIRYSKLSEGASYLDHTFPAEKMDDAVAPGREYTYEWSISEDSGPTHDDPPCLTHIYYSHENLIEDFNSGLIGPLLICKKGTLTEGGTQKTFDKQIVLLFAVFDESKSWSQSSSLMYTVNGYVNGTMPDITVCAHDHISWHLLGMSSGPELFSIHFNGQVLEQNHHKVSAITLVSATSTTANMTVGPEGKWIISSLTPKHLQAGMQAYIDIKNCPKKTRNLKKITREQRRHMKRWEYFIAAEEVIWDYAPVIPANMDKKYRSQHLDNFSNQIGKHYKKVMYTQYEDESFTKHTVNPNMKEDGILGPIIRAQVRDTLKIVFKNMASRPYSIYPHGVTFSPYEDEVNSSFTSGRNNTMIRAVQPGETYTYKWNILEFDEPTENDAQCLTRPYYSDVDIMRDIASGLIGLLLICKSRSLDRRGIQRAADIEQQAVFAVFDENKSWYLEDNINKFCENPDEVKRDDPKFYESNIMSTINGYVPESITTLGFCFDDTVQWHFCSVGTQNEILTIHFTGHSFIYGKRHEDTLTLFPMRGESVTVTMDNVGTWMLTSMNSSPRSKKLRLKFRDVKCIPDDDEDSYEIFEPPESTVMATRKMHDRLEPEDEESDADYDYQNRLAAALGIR
Sequence of skeletal muscle myosin-supported prothrombin activation by factors Xa and Va (P12259 1574-2224 partner): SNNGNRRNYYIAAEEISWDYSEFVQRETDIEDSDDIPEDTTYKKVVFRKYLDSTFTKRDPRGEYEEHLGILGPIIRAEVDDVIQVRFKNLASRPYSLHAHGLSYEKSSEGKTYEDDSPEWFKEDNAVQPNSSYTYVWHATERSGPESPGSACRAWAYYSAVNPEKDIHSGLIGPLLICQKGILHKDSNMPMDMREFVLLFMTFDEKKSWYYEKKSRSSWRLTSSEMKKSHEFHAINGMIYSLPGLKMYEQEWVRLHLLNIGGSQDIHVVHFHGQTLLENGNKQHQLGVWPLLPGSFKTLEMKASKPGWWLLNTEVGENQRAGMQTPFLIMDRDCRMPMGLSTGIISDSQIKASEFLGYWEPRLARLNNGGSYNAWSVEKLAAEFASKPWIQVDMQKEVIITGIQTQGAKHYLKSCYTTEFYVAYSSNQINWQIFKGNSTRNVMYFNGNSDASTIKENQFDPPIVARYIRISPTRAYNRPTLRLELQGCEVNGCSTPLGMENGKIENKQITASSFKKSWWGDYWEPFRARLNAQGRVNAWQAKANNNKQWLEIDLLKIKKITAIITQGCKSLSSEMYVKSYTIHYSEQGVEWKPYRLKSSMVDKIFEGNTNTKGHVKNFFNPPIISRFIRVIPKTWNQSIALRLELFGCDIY

The test has as its target skeletal muscle myosin-supported prothrombin activation by factors Xa and Va (Homo sapiens, UniProt P00742). As to the kind of experiment: Assay 1A: prothrombin activation by factor Xa/factor Va/myosin in purified system. Format: biochemical, human factors Xa and Va; rabbit skeletal muscle myosin. The conditions noted are these: purified system; skeletal muscle myosin, factor Va 5 nM, factor Xa 0.2 nM, prothrombin 0.75 μM, 10 min; read-out: 1A (+myosin).
Consider `CC[C@H](C)[C@H](NC(=O)[C@H](C)N)C(=O)N[C@@H](Cc1ccccc1)C(=O)N[C@@H](CS)C(=O)N[C@H](C(=O)N[C@@H](CCC(N)=O)C(=O)N[C@@H](Cc1ccc(O)cc1)C(=O)N[C@@H](CC(N)=O)C(=O)N[C@H](C(=O)N[C@@H](CCCNC(=N)N)C(=O)N[C@@H](C)C(=O)N[C@@H](Cc1ccccc1)C(=O)N[C@@H](CCSC)C(=O)N[C@@H](CC(N)=O)C(=O)N[C@H](C(=O)N[C@@H](CCCCN)C(=O)N[C@@H](Cc1c[nH]cn1)C(=O)N[C@@H](Cc1c[nH]c2ccccc12)C(=O)N1CCC[C@H]1C(=O)N[C@@H](Cc1c[nH]c2ccccc12)C(=O)N[C@@H](CCSC)C(=O)N[C@@H](CCCCN)C(N)=O)C(C)C)[C@@H](C)CC)[C@@H](C)CC` [HC126] (H-AIFCIQYNIRAFMNVKHWPWMK-NH2; N-terminus assumed), for which the IC50 is 4900 nM.
Under `CC[C@H](C)[C@H](NC(=O)[C@H](C)N)C(=O)N[C@@H](Cc1ccccc1)C(=O)N[C@@H](CS)C(=O)N[C@H](C(=O)N[C@@H](CCC(N)=O)C(=O)N[C@@H](Cc1ccc(O)cc1)C(=O)N[C@@H](CC(N)=O)C(=O)N[C@H](C(=O)N[C@@H](CCCNC(=N)N)C(=O)N[C@@H](CO)C(=O)N[C@@H](C)C(=O)N[C@@H](CCSC)C(=O)N[C@@H](CC(N)=O)C(=O)N[C@H](C(=O)N[C@@H](CCCCN)C(=O)N[C@@H](Cc1c[nH]cn1)C(=O)N[C@@H](Cc1c[nH]c2ccccc12)C(=O)N1CCC[C@H]1C(=O)N[C@@H](Cc1c[nH]c2ccccc12)C(=O)N[C@@H](CCSC)C(=O)N[C@@H](CCCCN)C(N)=O)C(C)C)[C@@H](C)CC)[C@@H](C)CC` [HC127] (H-AIFCIQYNIRSAMNVKHWPWMK-NH2; N-terminus assumed) stands 5900 nM; under `CC[C@H](C)[C@H](NC(=O)[C@H](C)N)C(=O)N[C@@H](Cc1ccccc1)C(=O)N[C@@H](CS)C(=O)N[C@H](C(=O)N[C@@H](CCC(N)=O)C(=O)N[C@@H](Cc1ccc(O)cc1)C(=O)N[C@@H](CC(N)=O)C(=O)N[C@H](C(=O)N[C@@H](CCCNC(=N)N)C(=O)N[C@@H](CO)C(=O)N[C@@H](Cc1ccccc1)C(=O)N[C@@H](C)C(=O)N[C@@H](CC(N)=O)C(=O)N[C@H](C(=O)N[C@@H](CCCCN)C(=O)N[C@@H](Cc1c[nH]cn1)C(=O)N[C@@H](Cc1c[nH]c2ccccc12)C(=O)N1CCC[C@H]1C(=O)N[C@@H](Cc1c[nH]c2ccccc12)C(=O)N[C@@H](CCSC)C(=O)N[C@@H](CCCCN)C(N)=O)C(C)C)[C@@H](C)CC)[C@@H](C)CC` [HC128] (H-AIFCIQYNIRSFANVKHWPWMK-NH2; N-terminus assumed), 2000 nM.
Under `CC[C@H](C)[C@H](NC(=O)[C@H](C)N)C(=O)N[C@@H](Cc1ccccc1)C(=O)N[C@@H](CS)C(=O)N[C@H](C(=O)N[C@@H](CCC(N)=O)C(=O)N[C@@H](Cc1ccc(O)cc1)C(=O)N[C@@H](CC(N)=O)C(=O)N[C@H](C(=O)N[C@@H](CCCNC(=N)N)C(=O)N[C@@H](CO)C(=O)N[C@@H](Cc1ccccc1)C(=O)N[C@@H](CCSC)C(=O)N[C@@H](C)C(=O)N[C@H](C(=O)N[C@@H](CCCCN)C(=O)N[C@@H](Cc1c[nH]cn1)C(=O)N[C@@H](Cc1c[nH]c2ccccc12)C(=O)N1CCC[C@H]1C(=O)N[C@@H](Cc1c[nH]c2ccccc12)C(=O)N[C@@H](CCSC)C(=O)N[C@@H](CCCCN)C(N)=O)C(C)C)[C@@H](C)CC)[C@@H](C)CC` [HC129] (H-AIFCIQYNIRSFMAVKHWPWMK-NH2; N-terminus assumed) stands 4200 nM; under `CC[C@H](C)[C@H](NC(=O)[C@H](C)N)C(=O)N[C@@H](Cc1ccccc1)C(=O)N[C@@H](CS)C(=O)N[C@H](C(=O)N[C@@H](CCC(N)=O)C(=O)N[C@@H](Cc1ccc(O)cc1)C(=O)N[C@@H](CC(N)=O)C(=O)N[C@H](C(=O)N[C@@H](CCCNC(=N)N)C(=O)N[C@@H](CO)C(=O)N[C@@H](Cc1ccccc1)C(=O)N[C@@H](CCSC)C(=O)N[C@@H](CC(N)=O)C(=O)N[C@@H](C)C(=O)N[C@@H](CCCCN)C(=O)N[C@@H](Cc1c[nH]cn1)C(=O)N[C@@H](Cc1c[nH]c2ccccc12)C(=O)N1CCC[C@H]1C(=O)N[C@@H](Cc1c[nH]c2ccccc12)C(=O)N[C@@H](CCSC)C(=O)N[C@@H](CCCCN)C(N)=O)[C@@H](C)CC)[C@@H](C)CC` [HC130] (H-AIFCIQYNIRSFMNAKHWPWMK-NH2; N-terminus assumed), 2100 nM; under `CC[C@H](C)[C@H](NC(=O)[C@H](C)N)C(=O)N[C@@H](Cc1ccccc1)C(=O)N[C@@H](CS)C(=O)N[C@H](C(=O)N[C@@H](CCC(N)=O)C(=O)N[C@@H](Cc1ccc(O)cc1)C(=O)N[C@@H](CC(N)=O)C(=O)N[C@H](C(=O)N[C@@H](CCCNC(=N)N)C(=O)N[C@@H](CO)C(=O)N[C@@H](Cc1ccccc1)C(=O)N[C@@H](CCSC)C(=O)N[C@@H](CC(N)=O)C(=O)N[C@H](C(=O)N[C@@H](C)C(=O)N[C@@H](Cc1c[nH]cn1)C(=O)N[C@@H](Cc1c[nH]c2ccccc12)C(=O)N1CCC[C@H]1C(=O)N[C@@H](Cc1c[nH]c2ccccc12)C(=O)N[C@@H](CCSC)C(=O)N[C@@H](CCCCN)C(N)=O)C(C)C)[C@@H](C)CC)[C@@H](C)CC` [HC131] (H-AIFCIQYNIRSFMNVAHWPWMK-NH2; N-terminus assumed), 2200 nM.
Under `CC[C@H](C)[C@H](NC(=O)[C@H](C)N)C(=O)N[C@@H](Cc1ccccc1)C(=O)N[C@@H](CS)C(=O)N[C@H](C(=O)N[C@@H](CCC(N)=O)C(=O)N[C@@H](Cc1ccc(O)cc1)C(=O)N[C@@H](CC(N)=O)C(=O)N[C@H](C(=O)N[C@@H](CCCNC(=N)N)C(=O)N[C@@H](CO)C(=O)N[C@@H](Cc1ccccc1)C(=O)N[C@@H](CCSC)C(=O)N[C@@H](CC(N)=O)C(=O)N[C@H](C(=O)N[C@@H](CCCCN)C(=O)N[C@@H](C)C(=O)N[C@@H](Cc1c[nH]c2ccccc12)C(=O)N1CCC[C@H]1C(=O)N[C@@H](Cc1c[nH]c2ccccc12)C(=O)N[C@@H](CCSC)C(=O)N[C@@H](CCCCN)C(N)=O)C(C)C)[C@@H](C)CC)[C@@H](C)CC` [HC132] (H-AIFCIQYNIRSFMNVKAWPWMK-NH2; N-terminus assumed) stands 3100 nM; under `CC[C@H](C)[C@H](NC(=O)[C@H](C)N)C(=O)N[C@@H](Cc1ccccc1)C(=O)N[C@@H](CS)C(=O)N[C@H](C(=O)N[C@@H](CCC(N)=O)C(=O)N[C@@H](Cc1ccc(O)cc1)C(=O)N[C@@H](CC(N)=O)C(=O)N[C@H](C(=O)N[C@@H](CCCNC(=N)N)C(=O)N[C@@H](CO)C(=O)N[C@@H](Cc1ccccc1)C(=O)N[C@@H](CCSC)C(=O)N[C@@H](CC(N)=O)C(=O)N[C@H](C(=O)N[C@@H](CCCCN)C(=O)N[C@@H](Cc1c[nH]cn1)C(=O)N[C@@H](C)C(=O)N1CCC[C@H]1C(=O)N[C@@H](Cc1c[nH]c2ccccc12)C(=O)N[C@@H](CCSC)C(=O)N[C@@H](CCCCN)C(N)=O)C(C)C)[C@@H](C)CC)[C@@H](C)CC` [HC133] (H-AIFCIQYNIRSFMNVKHAPWMK-NH2; N-terminus assumed), 1800 nM.
Consider `CC[C@H](C)[C@H](NC(=O)[C@H](C)N)C(=O)N[C@@H](Cc1ccccc1)C(=O)N[C@@H](CS)C(=O)N[C@H](C(=O)N[C@@H](CCC(N)=O)C(=O)N[C@@H](Cc1ccc(O)cc1)C(=O)N[C@@H](CC(N)=O)C(=O)N[C@H](C(=O)N[C@@H](CCCNC(=N)N)C(=O)N[C@@H](CO)C(=O)N[C@@H](Cc1ccccc1)C(=O)N[C@@H](CCSC)C(=O)N[C@@H](CC(N)=O)C(=O)N[C@H](C(=O)N[C@@H](CCCCN)C(=O)N[C@@H](Cc1c[nH]cn1)C(=O)N[C@@H](Cc1c[nH]c2ccccc12)C(=O)N[C@@H](C)C(=O)N[C@@H](Cc1c[nH]c2ccccc12)C(=O)N[C@@H](CCSC)C(=O)N[C@@H](CCCCN)C(N)=O)C(C)C)[C@@H](C)CC)[C@@H](C)CC` [HC134] (H-AIFCIQYNIRSFMNVKHWAWMK-NH2; N-terminus assumed), for which the IC50 amounted to 900 nM.
Under `CC[C@H](C)[C@H](NC(=O)[C@H](C)N)C(=O)N[C@@H](Cc1ccccc1)C(=O)N[C@@H](CS)C(=O)N[C@H](C(=O)N[C@@H](CCC(N)=O)C(=O)N[C@@H](Cc1ccc(O)cc1)C(=O)N[C@@H](CC(N)=O)C(=O)N[C@H](C(=O)N[C@@H](CCCNC(=N)N)C(=O)N[C@@H](CO)C(=O)N[C@@H](Cc1ccccc1)C(=O)N[C@@H](CCSC)C(=O)N[C@@H](CC(N)=O)C(=O)N[C@H](C(=O)N[C@@H](CCCCN)C(=O)N[C@@H](Cc1c[nH]cn1)C(=O)N[C@@H](Cc1c[nH]c2ccccc12)C(=O)N1CCC[C@H]1C(=O)N[C@@H](C)C(=O)N[C@@H](CCSC)C(=O)N[C@@H](CCCCN)C(N)=O)C(C)C)[C@@H](C)CC)[C@@H](C)CC` [HC135] (H-AIFCIQYNIRSFMNVKHWPAMK-NH2; N-terminus assumed) stands 2700 nM; under `CC[C@H](C)[C@H](NC(=O)[C@H](C)N)C(=O)N[C@@H](Cc1ccccc1)C(=O)N[C@@H](CS)C(=O)N[C@H](C(=O)N[C@@H](CCC(N)=O)C(=O)N[C@@H](Cc1ccc(O)cc1)C(=O)N[C@@H](CC(N)=O)C(=O)N[C@H](C(=O)N[C@@H](CCCNC(=N)N)C(=O)N[C@@H](CO)C(=O)N[C@@H](Cc1ccccc1)C(=O)N[C@@H](CCSC)C(=O)N[C@@H](CC(N)=O)C(=O)N[C@H](C(=O)N[C@@H](CCCCN)C(=O)N[C@@H](Cc1c[nH]cn1)C(=O)N[C@@H](Cc1c[nH]c2ccccc12)C(=O)N1CCC[C@H]1C(=O)N[C@@H](Cc1c[nH]c2ccccc12)C(=O)N[C@@H](C)C(=O)N[C@@H](CCCCN)C(N)=O)C(C)C)[C@@H](C)CC)[C@@H](C)CC` [HC136] (H-AIFCIQYNIRSFMNVKHWPWAK-NH2; N-terminus assumed), 1600 nM.
As to `CC[C@H](C)[C@H](NC(=O)[C@H](C)N)C(=O)N[C@@H](Cc1ccccc1)C(=O)N[C@@H](CS)C(=O)N[C@H](C(=O)N[C@@H](CCC(N)=O)C(=O)N[C@@H](Cc1ccc(O)cc1)C(=O)N[C@@H](CC(N)=O)C(=O)N[C@H](C(=O)N[C@@H](CCCNC(=N)N)C(=O)N[C@@H](CO)C(=O)N[C@@H](Cc1ccccc1)C(=O)N[C@@H](CCSC)C(=O)N[C@@H](CC(N)=O)C(=O)N[C@H](C(=O)N[C@@H](CCCCN)C(=O)N[C@@H](Cc1c[nH]cn1)C(=O)N[C@@H](Cc1c[nH]c2ccccc12)C(=O)N1CCC[C@H]1C(=O)N[C@@H](Cc1c[nH]c2ccccc12)C(=O)N[C@@H](CCSC)C(=O)N[C@@H](C)C(N)=O)C(C)C)[C@@H](C)CC)[C@@H](C)CC` [HC137] (H-AIFCIQYNIRSFMNVKHWPWMA-NH2; N-terminus assumed), the IC50 was 5500 nM.
